Data on 6 compounds can be found in patent publication US20250223306A1, “TEAD INHIBITORS AND METHODS OF USE” (Sporos BioDiscovery, Inc., priority 2022, published 2025).

The term IC50 denotes the concentration that inhibits the measured activity by half. A word on the EC50: it is the concentration that produces a half-maximal response. A high value points to a less potent agent.

Experiment [1] concerns NCI-H226 cells. The experiment in a line: Proliferation and cell viability, CellTiter-Glo 2.0 (CTG) assay. The format is cell-based. The following applies: H226-responder cell line, 144 hrs. How it is done:
(§1) Cell proliferation of a TEAD dependent NF2-null mesothelioma cell line, NCI-H226, and a TEAD-non-dependent mesothelioma cell line, NCI-H28 was assayed using two different protocols: • a) CellTiter-Glo 2.0 (Promega #G9243). The effect of the TEAD inhibitors disclosed herein on cell proliferation was determined in TEAD1-genetically dependent cell line NCI-H226 (responder cell line) and TEAD-independent cell lines (NCI-H23, HEK293T), as non-responder, negative control. Cells were seeded in 96-well plates (Thermo Scientific #167008) in growth media (RPMI-1640, Gibco #61870-010) for NCI-H226 and NCI-H23 or DMEM (Gibco #31966-021, HEK293T) with 10% Heat Inactivated Fetal Bovine Serum (Gibco 10500-064) at 800 (NCI-H226 and HEK-293T) or 2000 (NCI-H23) cells per well at 37° C., 5% CO2, humidified incubator; 24 hours later, fresh growth media containing test compound or DMSO vehicle was added and incubated with the cells for 144 hrs. TEAD inhibitor stocks were made at a 1000× fold excess in DMSO, and a dose response test compound dose range of 10,000 to 0.1 nM was used. Each treatment was carried out in triplicate. After 144 hrs of treatment, relative cell viability numbers were determined using the CellTiter-Glo 2.0 assay following the manufacturer's instructions. Test plates and CellTiter-Glo 2.0 reagent were allowed to equilibrate to room temperature. CellTiter-Glo 2.0 reagent was added at 1:1 reagent to media ratio to the 96-well cell plates, plates were placed on a plate shaker for 2 minutes and then incubated at room temperature for a further 10 minutes to allow complete cell lysis to occur. The mix was then transferred to white, 96-well luminometer assay plates (Greiner Bio One #655075). Luminescence was quantified using a CLARIOStar Plus multi-mode plate reader (BMG Labtech) in luminescence detection mode with the recommended settings (ultra-Glo pre-set: emission 545-50 nm with autofocus and enhanced dynamic range on). Relative cell density was expressed as a function of inhibitor concentration, with respect to DMSO-only control wells. Data where plotted using GraphPad Prism and IC50 values for the biological effect were calculated using the EC50 non-linear fit function using a sigmoidal, 4-parameter logistic, least squares fit with no constraints. • b) Cell Titer One (Promega, #G3582). The effect of the TEAD inhibitors disclosed herein on cell proliferation was also determined using the Promega Substrate Cell Titer Aqueous One Solution Reagent. The TEAD inhibitors were evaluated for the effects on cell proliferation responder (H226) and non-responder negative control cancer cell lines (CAMA1, H28), as well as non-transformed normal human cells (HUVEC, NHDF). Dissociated cells were resuspend in media (depending on cell line, either in DMEM, RPMI, or EMEM all with 10% FBS, with gentamicin as an antibiotic). Cells were seeded at 100 μL/well at 750 cells per well in 96-well plates and allowed to settle and attach. After an incubation of 24 hrs (37° C., 5% CO2, humidified incubator), 100 μL of test compound-containing media was added. A dilution series of 2000× concentrated stock of test compounds was prepared in DMSO, for final concentrations from 0.1 to 10,000 nM. After addition of test compound-containing media, cells were incubated for 6 days at 37° C., 5% CO2, humidified incubators). To measure cell density, 20 μL of Promega Substrate Cell Titer 96 Aqueous One Solution Reagent (Promega, #G3582) to each well was added according to the manufacturer's instructions. Plates were incubated at 37° C. for usually 3-8 hrs, to reach in the control cells (without compound) an OD of 1.5 at 490 nm. The OD was measured using Vmax [Molecular Devices] spectrophotometer plate reader. Media only-wells were used as background controls and cell densities normalized to DMSO vehicle control. ECs were taken as the concentration achieving 50% of maximal growth inhibition.
(In general: Cellular ATP, detected with luciferase, serves as a proxy for viable cell number.)

In experiment [2] the test system is NCI-H23 cells. Described as above. It is filed as cell-based. The following applies: 144 hrs. How it is done:
as §1

Experiment [3] relates to NCI-H226 cells. The experiment in a line: Proliferation, Cell Titer One assay. The format is cell-based. The following applies: 6 days. On the procedure:
as §1

Experiment [4] relates to NCI-H28 cells. In words: Proliferation, Cell Titer One assay. The following applies: 6 days. It is filed as cell-based. On the procedure:
as §1

In experiment [5] the test system is TEAD/YAP promoter element in MCF7-Luc cells. The experiment in a line: Cell-based TEAD-promoter transcriptional activity assay (MCF-7 TEAD luciferase). The following applies: Homo sapiens, MCF7; MCF-7 TEAD luciferase assay, 24 hrs. The source says:
Luciferase based TEAD-transcriptional cell-based reporter assay: To measure the effect of the TEAD inhibitors disclosed herein on TEAD transcriptional activity in cell-based systems, we employed a stable MCF7 cell line expressing luciferase under a consensus synthetic TEAD/YAP promoter element (MCF7-Luc, BPS Bioscience, Catalog #60618). This MCF7-TEAD-Luc cell line has been extensively validated with both genetic and pharmacological intervention, showing inhibition of luciferase expression and luminescence in response to ablation of the TEAD/YAP pathway. MCF7-Luc cells were plated at 10,000 cells per well in white 384-well plates and settled by a quick spin. The media was MEM (Gibco) supplemented with 10% fetal bovine serum (ExCell), selenium-transferrin-insulin mix (Gibco), 1× non-essential amino acids (Gibco) and sodium pyruvate (Gibco). Cells were allowed to attach and grow overnight (37° C., 5% CO2 in humidified incubator), and test compounds were added the next day. Compounds were dissolved at 1000× fold excess in DMSO and made into 2-fold serial dilution, and added to media at 30 μL of media per well. A DMSO-only well serves a vehicle control. The highest concentration of drug in media was 1,000 nM. Positive control compounds include K975 (pan-TEAD inhibitor) and negative control (Actinomycin). Cells were incubated for 24 hrs with test compounds and positive controls, after which time, the luminescence was measured by the One-Glo luciferase kit (Promega). 30 μL of One-Glo reagent was added to each well and shaken for 8 minutes to lyse the cells. The plates were centrifugated at 1000 RPM for 1 minute to settle all liquid in the well and eliminate bubbles. Luminescence was quantified using an ENVision plate reader (Perkin Elmer). Percent inhibition of luminescence by test compound was expressed as a function of test compound concentration, with the no-test compound DMSO only wells serving as baseline. EC50 values for each compound were calculated with a non-linear asymptotic line fit.

The target in experiment [6] is TEAD1 (Homo sapiens, UniProt P28347). The following applies: cited from earlier work.
In experiment [7] the target is TEAD2 (Homo sapiens, UniProt Q15562). The following applies: thermal shift, reported data of Tang and Post; cited from earlier work.
Experiment [8] concerns the target TEAD3 (Homo sapiens, UniProt Q99594). The following applies: thermal shift, reported data of Tang and Post; cited from earlier work.
For experiment [9], the target named is TEAD4 (Homo sapiens, UniProt Q15561). The following applies: cited from earlier work.
The mark [10] stands for this setting: Homo sapiens, NCI-H23, H23-non-responder cell line.
Setting [11] is: thermal shift assays of Tang and Post.
The mark [12] stands for this setting: thermal shift, reported data of Tang and Post.

Chain of TEAD1 (P28347 whole entry): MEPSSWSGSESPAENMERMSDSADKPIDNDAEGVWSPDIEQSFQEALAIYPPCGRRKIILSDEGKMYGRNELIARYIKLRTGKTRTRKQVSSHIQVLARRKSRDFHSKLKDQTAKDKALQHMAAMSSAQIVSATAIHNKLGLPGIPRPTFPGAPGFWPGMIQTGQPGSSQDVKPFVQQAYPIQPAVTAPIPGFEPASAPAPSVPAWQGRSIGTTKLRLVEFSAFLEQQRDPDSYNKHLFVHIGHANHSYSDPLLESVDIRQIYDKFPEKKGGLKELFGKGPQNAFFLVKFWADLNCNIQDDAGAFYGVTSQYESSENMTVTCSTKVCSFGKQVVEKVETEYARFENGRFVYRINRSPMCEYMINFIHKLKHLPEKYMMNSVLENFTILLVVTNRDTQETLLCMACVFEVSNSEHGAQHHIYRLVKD
Chain of TEAD4 (Q15561 whole entry): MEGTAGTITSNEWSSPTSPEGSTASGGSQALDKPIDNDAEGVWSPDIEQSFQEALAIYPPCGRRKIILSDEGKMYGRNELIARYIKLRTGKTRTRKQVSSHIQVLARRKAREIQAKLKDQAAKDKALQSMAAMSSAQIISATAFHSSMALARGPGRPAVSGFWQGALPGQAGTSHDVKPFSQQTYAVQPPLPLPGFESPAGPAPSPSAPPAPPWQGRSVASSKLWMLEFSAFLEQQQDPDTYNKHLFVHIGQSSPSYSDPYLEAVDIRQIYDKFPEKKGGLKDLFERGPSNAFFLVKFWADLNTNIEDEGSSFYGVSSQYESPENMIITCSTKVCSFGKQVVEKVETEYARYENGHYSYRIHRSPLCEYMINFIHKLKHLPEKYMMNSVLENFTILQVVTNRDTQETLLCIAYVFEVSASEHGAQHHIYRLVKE
Chain of TEAD2 (Q15562 whole entry): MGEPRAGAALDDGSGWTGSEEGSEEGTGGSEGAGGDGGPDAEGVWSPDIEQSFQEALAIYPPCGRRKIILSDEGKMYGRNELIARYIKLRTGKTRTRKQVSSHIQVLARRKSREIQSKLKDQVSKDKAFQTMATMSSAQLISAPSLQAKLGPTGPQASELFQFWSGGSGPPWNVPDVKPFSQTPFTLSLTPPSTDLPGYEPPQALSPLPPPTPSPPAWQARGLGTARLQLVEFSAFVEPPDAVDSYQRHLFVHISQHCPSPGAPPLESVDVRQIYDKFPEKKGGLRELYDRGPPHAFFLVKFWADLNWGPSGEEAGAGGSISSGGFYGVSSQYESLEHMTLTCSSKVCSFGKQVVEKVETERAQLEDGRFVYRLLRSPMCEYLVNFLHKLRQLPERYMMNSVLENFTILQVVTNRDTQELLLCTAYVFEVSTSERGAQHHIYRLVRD
Chain of TEAD3 (Q99594 whole entry): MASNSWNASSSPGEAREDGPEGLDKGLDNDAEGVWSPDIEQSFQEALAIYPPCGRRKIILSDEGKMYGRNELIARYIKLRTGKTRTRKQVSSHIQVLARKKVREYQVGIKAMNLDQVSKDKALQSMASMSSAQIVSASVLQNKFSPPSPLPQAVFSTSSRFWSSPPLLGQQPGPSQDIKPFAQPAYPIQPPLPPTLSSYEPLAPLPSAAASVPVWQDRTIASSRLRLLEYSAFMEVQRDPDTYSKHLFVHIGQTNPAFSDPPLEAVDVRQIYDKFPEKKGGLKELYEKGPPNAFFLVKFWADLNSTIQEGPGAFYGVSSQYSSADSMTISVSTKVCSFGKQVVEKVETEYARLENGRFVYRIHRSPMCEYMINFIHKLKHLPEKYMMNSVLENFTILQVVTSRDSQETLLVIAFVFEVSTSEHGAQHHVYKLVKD

As for `C[C@H](NC(=O)c1cnc2c(C3=CC[C@@H](C(F)(F)F)CC3)cccc2c1)c1ncco1` (single isomer, unassigned) [Compound 21, N-(1-(oxazol-2-yl)ethyl)-8-(4-(trifluoromethyl)cyclohex-1-en-1-yl)quinoline-3-carboxamide], the IC50 was 0.2 to 1 µM in [1], > 1 µM in experiment [2] (H23-non-responder cell line), 0.2 to 1 µM in experiment [3] and > 1 µM in experiment [4].

Regarding `C[C@H](NC(=O)c1cnc2c(C3=CC[C@@H](C(F)(F)F)CC3)cccc2c1)c1ncco1` (single isomer, unassigned) [Compound 22, N-(1-(oxazol-2-yl)ethyl)-8-(4-(trifluoromethyl)cyclohex-1-en-1-yl)quinoline-3-carboxamide], the IC50 is < 0.2 µM in experiment [1], > 1 µM in experiment [2] (H23-non-responder cell line), 0.2 to 1 µM in experiment [3] and > 1 µM in experiment [4].

For `CC(C)NC(=O)c1cnc2c(C3=CCC(C(F)(F)F)CC3)cccc2c1` (centres unmarked) [Compound 1, N-isopropyl-8-(4-(trifluoromethyl)cyclohex-1-en-1-yl)quinoline-3-carboxamide], the IC50 in experiment [1] (Homo sapiens, NCI-H226, 144 h) was < 0.2 µM; in experiment [2] (setting [10]), > 1 µM; in [3] (Homo sapiens, NCI-H226, 144 h) it was < 0.2 µM; in experiment [4] (Homo sapiens, NCI-H28, 144 h), > 1 µM. Further, the concentration giving a half-maximal response (EC50) in experiment [5] was < 0.2 µM.

As for `COC[C@H](C)NC(=O)c1cnc2c(C3=CCC(C(F)(F)F)CC3)cccc2c1` (stereo partly drawn) [Compound 6, N—((S)-1-methoxypropan-2-yl)-8-(4-(trifluoromethyl)cyclohex-1-en-1-yl)quinoline-3-carboxamide], the IC50 is < 0.2 µM in experiment [1] (Homo sapiens, NCI-H226, 144 h); > 1 µM in experiment [2] (setting [10]); < 0.2 µM in experiment [3] (Homo sapiens, NCI-H226, 144 h); > 1 µM in [4] (Homo sapiens, NCI-H28, 144 h).

For `CS(=O)(=O)c1cnc2c(C3=CCC(C(F)(F)F)CC3)cccc2c1` (centres unmarked) [Compound 16, 3-(methylsulfonyl)-8-(4-(trifluoromethyl)cyclohex-1-en-1-yl)quinoline], the IC50 in [1] (Homo sapiens, NCI-H226, 144 h) was < 0.2 µM; in experiment [3] (Homo sapiens, NCI-H226, 144 h), < 0.2 µM; in experiment [4] (Homo sapiens, NCI-H28, 144 h), > 1 µM.

Turning to `C[C@H](CO)NC(=O)c1ccc2c(Oc3ccc(C(F)(F)F)cc3)cccc2c1` [VT3989], in [6] (setting [11]), the “interaction with TEAD isoforms, in words” value is listed as “primarily interacts with TEAD1-3”. Moreover, in [6] (setting [12]), the “TEAD1 ΔTm” value is 11.6 °C. The “TEAD2 ΔTm” value in [7] is 8.8 °C. Further, the “TEAD3 ΔTm” value in experiment [8] was 8.5 °C. In addition, in experiment [9] (setting [11]), the “binding to TEAD4, in words” value is on record as “lower levels of binding to TEAD4”. Besides, in experiment [9] (setting [12]), the “TEAD4 ΔTm” value is 4.6 °C.
